PubChem BioAssay AID2060503 (Molecular Pharmacology Branch, DTP, NCI, 2025)

Tested on: 817829-284-R-J1-PDC complex spheroids, viability
Test: Anticancer human tumor 817829-284-R-J1-PDC patient-derived colon adenocarcinoma cell line growth inhibition [GQUAD]
Settings: for IC50: curve of first compound; for viability, T/C: stronger effect = lower value; active means viability on the fitted dose curve at most 10% of control; inactive means the rest
Procedure, shortened: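 Multi-cell-type spheroids of tumor cells with HUVEC and mesenchymal stem cells, treated with drug combinations. Concentrations descend in half-log steps from near clinical Cmax, or from 10 microM where Cmax is unknown; viability read-out.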

[1] = second compound 0.0316 µM, first compound 0.0316 µM
[2] = second compound 0.0316 µM, first compound 0.316 µM
[3] = second compound 0.1 µM, first compound 0.0316 µM
[4] = second compound 0.1 µM, first compound 0.316 µM
[5] = second compound 0.316 µM, first compound 0.0316 µM
[6] = second compound 0.316 µM, first compound 0.316 µM
[7] = second compound 1 µM, first compound 0.0316 µM
[8] = second compound 1 µM, first compound 0.316 µM
[9] = second compound 3.16 µM, first compound 0.0316 µM
[10] = second compound 3.16 µM, first compound 0.316 µM
[11] = second compound 10 µM, first compound 0.0316 µM
[12] = second compound 10 µM, first compound 0.316 µM
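Further: spheroids exposed to agents for 7 days before readout.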
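Wherever viability, T/C is given: percent viability relative to DMSO vehicle control taken as 100%.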

Cc1[nH]c2ccccc2c1CCNCc1ccc(/C=C/C(=O)NO)cc1 + Cc1[nH]c2ccc(F)cc2c1-c1nc2c3cccnc3c3ncccc3c2[nH]1
55.2 nM: IC50 (second compound 0.316 µM)
< 0.999 nM: IC50 (second compound 10 µM)
51 nM: IC50 (second compound 1 µM)
53.6 nM: IC50 (second compound 0.1 µM)
20.2 nM: IC50 (second compound 3.16 µM)
54.5 nM: IC50 (second compound 0.0316 µM)
active: viability, T/C (second compound 0.0316 µM, first compound 0.0999 µM) 4.1% | viability, T/C [2] 0.13% | viability, T/C (second compound 0.1 µM, first compound 0.0999 µM) 3.87% | viability, T/C [4] 0.11% | viability, T/C (second compound 0.316 µM, first compound 0.0999 µM) 4.91% | viability, T/C [6] 0.1% | viability, T/C (second compound 1 µM, first compound 0.0999 µM) 5.56% | viability, T/C [8] 0.1% | viability, T/C (second compound 3.16 µM, first compound 0.0999 µM) 3.35% | viability, T/C [10] 0.16% | viability, T/C (second compound 10 µM, first compound 0.0999 µM) 2.12% | viability, T/C [12] 0.24%
inactive: viability, T/C (second compound 0.0316 µM, first compound 0.000999 µM) 89.7% | viability, T/C (second compound 0.0316 µM, first compound 0.00316 µM) 102% | viability, T/C (second compound 0.0316 µM, first compound 0.00999 µM) 121% | viability, T/C [1] 91.4% | viability, T/C (second compound 0.1 µM, first compound 0.000999 µM) 110% | viability, T/C (second compound 0.1 µM, first compound 0.00316 µM) 108% | viability, T/C (second compound 0.1 µM, first compound 0.00999 µM) 125% | viability, T/C [3] 89.8% | viability, T/C (second compound 0.316 µM, first compound 0.000999 µM) 99.5% | viability, T/C (second compound 0.316 µM, first compound 0.00316 µM) 119% | viability, T/C (second compound 0.316 µM, first compound 0.00999 µM) 121% | viability, T/C [5] 92.7% | viability, T/C (second compound 1 µM, first compound 0.000999 µM) 101% | viability, T/C (second compound 1 µM, first compound 0.00316 µM) 112% | viability, T/C (second compound 1 µM, first compound 0.00999 µM) 117% | viability, T/C [7] 82% | viability, T/C (second compound 3.16 µM, first compound 0.000999 µM) 71.3% | viability, T/C (second compound 3.16 µM, first compound 0.00316 µM) 99.3% | viability, T/C (second compound 3.16 µM, first compound 0.00999 µM) 65.2% | viability, T/C [9] 38.8% | viability, T/C (second compound 10 µM, first compound 0.000999 µM) 41.8% | viability, T/C (second compound 10 µM, first compound 0.00316 µM) 56.7% | viability, T/C (second compound 10 µM, first compound 0.00999 µM) 40.3% | viability, T/C [11] 28.5%

CC(C)(O)C1CCC(Nc2ccc3ncc(-c4cccc(C(F)(F)F)c4)n3n2)CC1 (centres undefined) + Cc1cnc(CNC(=O)c2c(=O)c3ccc(N4CCCN(C)CC4)nc3n3c2sc2ccccc23)cn1
527 nM: IC50 (second compound 0.0316 µM)
inactive: viability, T/C [1] 63.1% | viability, T/C (second compound 0.0316 µM, first compound 0.1 µM) 53.3% | viability, T/C [2] 76.1% | viability, T/C (second compound 0.0316 µM, first compound 1 µM) 32.3% | viability, T/C [3] 31.4% | viability, T/C (second compound 0.1 µM, first compound 0.1 µM) 36.8% | viability, T/C [4] 26% | viability, T/C (second compound 0.1 µM, first compound 1 µM) 20.4% | viability, T/C (second compound 0.1 µM, first compound 3.16 µM) 7.21% | viability, T/C [5] 22.4% | viability, T/C (second compound 0.316 µM, first compound 0.1 µM) 25.3% | viability, T/C [6] 25.3% | viability, T/C (second compound 0.316 µM, first compound 1 µM) 16.4% | viability, T/C [7] 16.6% | viability, T/C (second compound 1 µM, first compound 0.1 µM) 21.5% | viability, T/C [8] 21% | viability, T/C (second compound 1 µM, first compound 1 µM) 15.8% | viability, T/C [9] 20.8% | viability, T/C (second compound 3.16 µM, first compound 0.1 µM) 18% | viability, T/C [10] 19.1%
active: viability, T/C (second compound 0.0316 µM, first compound 3.16 µM) 5.43% | viability, T/C (second compound 0.0316 µM, first compound 10 µM) 13.3% | viability, T/C (second compound 0.1 µM, first compound 10 µM) 8.8% | viability, T/C (second compound 0.316 µM, first compound 3.16 µM) 1.35% | viability, T/C (second compound 0.316 µM, first compound 10 µM) 3.38% | viability, T/C (second compound 1 µM, first compound 3.16 µM) 0.04% | viability, T/C (second compound 1 µM, first compound 10 µM) 0.05% | viability, T/C (second compound 3.16 µM, first compound 1 µM) 9.34% | viability, T/C (second compound 3.16 µM, first compound 3.16 µM) 0.09% | viability, T/C (second compound 3.16 µM, first compound 10 µM) 0.09% | viability, T/C [11] 0.11% | viability, T/C (second compound 10 µM, first compound 0.1 µM) 0.13% | viability, T/C [12] 0.17% | viability, T/C (second compound 10 µM, first compound 1 µM) 0.12% | viability, T/C (second compound 10 µM, first compound 3.16 µM) 0.19% | viability, T/C (second compound 10 µM, first compound 10 µM) 0.18%
< 31.6 nM: IC50 (second compound 0.1 µM) | IC50 (second compound 0.316 µM) | IC50 (second compound 1 µM) | IC50 (second compound 3.16 µM) | IC50 (second compound 10 µM)
